Results published in patent publication US7135457B1, “Random peptides that bind to gastro-intestinal tract (GIT) transport receptors and related methods” (Cytogen Corporation, priority 1997, dated 2006).
Peptide text beside a SMILES is read from it. * marks the point of attachment. Dansyl = CN(C)c1cccc2c(S(=O)(=O)*)cccc12

Assays:
[1] = test system: P100 membrane fractions derived from Caco-2 cells; assay: Dansylated peptide ELISA on P100: PAX2 and HAX42 peptides relative binding; details: PAX2 peptides, ratio to ZElan021 (HAX42 = 1.00); for Binding value at 20 μg/ml: first 20 μg/ml column
Method: (§1) The peptides and proteins were analyzed by a dansylated peptide ELISA method in which 96 well plates were coated overnight at 4° C. with 100 μl/well coating protein (normally 100 μg/ml P100 membrane fraction) in 0.05M carbonate buffer pH9.6. Nonspecific binding was blocked using 200 μl/well, 2% Marvel/PBS for 2 hours at 37° C. prior to incubation with dansylated peptides. The plates were washed three times with PBS/0.05% Tween 20 and after each subsequent incubation step. […] A buffer blank control was included to ensure that background binding to plastic was not due to the antibodies used in the assay system. […] The plates were then incubated with an anti-mouse λ-HRP conjugated antibody (Southern Biotech 1060-05) at a 1:10,000 dilution in blocking solution, 100 μl/well for 1 hour at room temperature. Plates were developed using 75 μl/well Bionostics TMB substrate and incubated for approximately 10 minutes. The developing reaction was stopped using Bionostics Red Stop solution (25 μl/well), and the optical density of the plates was read at 650 nm.

[2] = test system: P100 membrane fractions derived from Caco-2 cells; assay: as above; details: ratio to ZElan021 (HAX42 = 1.00)
[3] = Drug potency, peptide loading and size of coacervated particles; format: physicochemical; details: formulation 1 particles (coacervation), blend; for Insulin (insulin potency): coated with the named peptide; for Peptide (level of peptide coated onto the particles): measured by fluorescence
[4] = molecular target: BSA (Bos taurus, UniProt P02769); assay: Phage ELISA on BSA (background control protein); format: binding
Sequence of BSA (P02769 25-607): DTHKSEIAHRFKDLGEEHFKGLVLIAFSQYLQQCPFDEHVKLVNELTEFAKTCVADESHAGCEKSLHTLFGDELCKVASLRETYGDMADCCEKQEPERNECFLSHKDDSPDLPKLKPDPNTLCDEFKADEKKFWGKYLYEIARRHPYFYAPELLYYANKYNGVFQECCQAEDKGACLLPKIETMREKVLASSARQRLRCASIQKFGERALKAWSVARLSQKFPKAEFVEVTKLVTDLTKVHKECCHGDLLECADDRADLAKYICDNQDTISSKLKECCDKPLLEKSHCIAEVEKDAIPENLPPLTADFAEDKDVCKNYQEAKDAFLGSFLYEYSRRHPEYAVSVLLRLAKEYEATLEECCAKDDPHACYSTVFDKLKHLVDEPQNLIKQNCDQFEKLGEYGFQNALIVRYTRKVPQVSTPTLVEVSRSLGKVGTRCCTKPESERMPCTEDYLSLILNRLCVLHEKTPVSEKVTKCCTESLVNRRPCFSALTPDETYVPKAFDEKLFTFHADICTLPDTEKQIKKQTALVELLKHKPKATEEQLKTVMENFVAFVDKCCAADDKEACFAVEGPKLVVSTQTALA
Method: 96 well plates were coated overnight with GIT receptor, BSA and, optionally, IDE (insulin degrading enzyme, an irrelevant His-fusion protein) or hTF. The plates were blocked for one hour with 0.5% BSA-PBS. After clarification, the amplified phage were diluted 1:100 in 1% BSA plus 0.05% Tween 20 in PBS and added to the plates. Following incubation of the plates on a rotator for 1 to 2 hours, the plates were washed 5 times with 1% BSA plus 0.05% Tween 20 in PBS. Dilute anti-M13-HRP conjugate (anti-M13 antibody linked to horse radish peroxidase (HRP)) was added to all the wells and the plate was incubated for one hour on a rotator. After the plates were washed 5 times, as described above, TMB substrate was added to the wells. The plates were read at 650 nm absorbance.

[5] = test system: P100 membrane fraction derived from Caco-2 cells; assay: GST-PAX2 peptides relative binding to P100 fractions; details: 20 μg/ml; binding to plastic subtracted; GST-HAX42 = 1.00
Method: as §1
After subtraction of the GST-peptide binding to plastic from P100 binding values, the binding of GST-PAX2 peptides were represented as a ratio of GST-HAX42 binding to P100, which was given the arbitrary value of 1.00. The following ratios were determined from binding to P100 of GST-peptides at a peptide concentration of 20 μg/ml. Bold denotes positive binding to the P100 membrane fraction.

Compound | Binding value at 50 μg/ml (Southern Ab) [1] | Binding value at 20 μg/ml [1] | Binding value at 50 μg/ml ([1]; first 50 μg/ml column) | Binding value at 50 μg/ml ([1]; second 50 μg/ml column) | Binding value at 50 μg/ml (Jackson Ab) [2] | Value: binding to P100 as a ratio of GST-HAX42 binding [5] | further results
CC(C)C[C@H](NC(=O)[C@H](CCCNC(=N)N)NC(=O)[C@H](CCCNC(=N)N)NC(=O)[C@H](CC(N)=O)NC(=O)[C@H](Cc1c[nH]cn1)NC(=O)[C@H](CO)NC(=O)[C@H](C)NC(=O)[C@@H](N)CCCCNS(=O)(=O)c1cccc2c(N(C)C)cccc12)C(=O)N[C@@H](CCCNC(=N)N)C(=O)N[C@H](C(=O)N[C@@H](CCCNC(=N)N)C(N)=O)[C@@H](C)O [ZElan073] (H-K(Dansyl)ASHNRRLRTR-NH2) | 0.49 | 0.07 | −0.11 | 0.49 | 0.66 |  | 
CC(C)C[C@H](NC(=O)[C@H](CCCNC(=N)N)NC(=O)[C@H](CCCNC(=N)N)NC(=O)[C@H](CC(N)=O)NC(=O)[C@H](Cc1c[nH]cn1)NC(=O)[C@H](C)NC(=O)[C@H](CO)NC(=O)[C@@H](N)CCCCNS(=O)(=O)c1cccc2c(N(C)C)cccc12)C(=O)N[C@@H](CCCNC(=N)N)C(=O)N[C@H](C(=O)N[C@@H](CCCNC(=N)N)C(N)=O)[C@@H](C)O [ZElan074] (H-K(Dansyl)SAHNRRLRTR-NH2) | 0.48 | 0.06 | 0.82 | 0.52 | 0.71 |  | 
CC(C)C[C@H](NC(=O)[C@H](CCCNC(=N)N)NC(=O)[C@H](CCCNC(=N)N)NC(=O)[C@H](CC(N)=O)NC(=O)[C@H](C)NC(=O)[C@H](CO)NC(=O)[C@H](CO)NC(=O)[C@@H](N)CCCCNS(=O)(=O)c1cccc2c(N(C)C)cccc12)C(=O)N[C@@H](CCCNC(=N)N)C(=O)N[C@H](C(=O)N[C@@H](CCCNC(=N)N)C(N)=O)[C@@H](C)O [ZElan075] (H-K(Dansyl)SSANRRLRTR-NH2) | 0.32 | 0.13 | 0.52 | 0.38 | 0.47 |  | 
CC(C)C[C@H](NC(=O)[C@H](CCCNC(=N)N)NC(=O)[C@H](CCCNC(=N)N)NC(=O)[C@H](C)NC(=O)[C@H](Cc1c[nH]cn1)NC(=O)[C@H](CO)NC(=O)[C@H](CO)NC(=O)[C@@H](N)CCCCNS(=O)(=O)c1cccc2c(N(C)C)cccc12)C(=O)N[C@@H](CCCNC(=N)N)C(=O)N[C@H](C(=O)N[C@@H](CCCNC(=N)N)C(N)=O)[C@@H](C)O [ZElan076] (H-K(Dansyl)SSHARRLRTR-NH2) | 0.42 | 0.08 | 1.00 | 0.41 | 0.60 |  | 
CC(C)C[C@H](NC(=O)[C@H](CCCNC(=N)N)NC(=O)[C@H](C)NC(=O)[C@H](CC(N)=O)NC(=O)[C@H](Cc1c[nH]cn1)NC(=O)[C@H](CO)NC(=O)[C@H](CO)NC(=O)[C@@H](N)CCCCNS(=O)(=O)c1cccc2c(N(C)C)cccc12)C(=O)N[C@@H](CCCNC(=N)N)C(=O)N[C@H](C(=O)N[C@@H](CCCNC(=N)N)C(N)=O)[C@@H](C)O [ZElan077] (H-K(Dansyl)SSHNARLRTR-NH2) | 0.52 | 0.20 | 0.76 | 0.54 | 0.73 |  | 
CC(C)C[C@H](NC(=O)[C@H](C)NC(=O)[C@H](CCCNC(=N)N)NC(=O)[C@H](CC(N)=O)NC(=O)[C@H](Cc1c[nH]cn1)NC(=O)[C@H](CO)NC(=O)[C@H](CO)NC(=O)[C@@H](N)CCCCNS(=O)(=O)c1cccc2c(N(C)C)cccc12)C(=O)N[C@@H](CCCNC(=N)N)C(=O)N[C@H](C(=O)N[C@@H](CCCNC(=N)N)C(N)=O)[C@@H](C)O [ZElan078] (H-K(Dansyl)SSHNRALRTR-NH2) | 0.47 | 0.11 | 0.87 | 0.69 | 0.68 |  | 
C[C@H](NC(=O)[C@H](CCCNC(=N)N)NC(=O)[C@H](CCCNC(=N)N)NC(=O)[C@H](CC(N)=O)NC(=O)[C@H](Cc1c[nH]cn1)NC(=O)[C@H](CO)NC(=O)[C@H](CO)NC(=O)[C@@H](N)CCCCNS(=O)(=O)c1cccc2c(N(C)C)cccc12)C(=O)N[C@@H](CCCNC(=N)N)C(=O)N[C@H](C(=O)N[C@@H](CCCNC(=N)N)C(N)=O)[C@@H](C)O [ZElan079] (H-K(Dansyl)SSHNRRARTR-NH2) | 0.53 | 0.31 | 0.97 | 0.68 | 0.83 |  | 
CC(C)C[C@H](NC(=O)[C@H](CCCNC(=N)N)NC(=O)[C@H](CCCNC(=N)N)NC(=O)[C@H](CC(N)=O)NC(=O)[C@H](Cc1c[nH]cn1)NC(=O)[C@H](CO)NC(=O)[C@H](CO)NC(=O)[C@@H](N)CCCCNS(=O)(=O)c1cccc2c(N(C)C)cccc12)C(=O)N[C@@H](C)C(=O)N[C@H](C(=O)N[C@@H](CCCNC(=N)N)C(N)=O)[C@@H](C)O [ZElan080] (H-K(Dansyl)SSHNRRLATR-NH2) | 0.38 | 0.23 | 0.84 | 0.45 | 0.67 |  | 
RVGQCTDSDVRRPWARSCAHQGCGAGTRNSHGCITRPLRQASAH [SNi10] |  |  |  |  |  |  | Insulin (insulin potency) [3]: 59.5 mg/g; Peptide (level of peptide coated onto the particles) [3]: 1.75 µL/mg; BSA ([4]; Table 1, phage panned on hSI): 0.051 OD
RYKHDIGCDAGVDKKSSSVRGGCGAHSSPPRAGRGPRGTMVSRL [DCX8] |  |  |  |  |  |  | Insulin (insulin potency) [3]: 59.1 mg/g; Peptide (level of peptide coated onto the particles) [3]: 1.87 µL/mg; BSA ([4]; Table 3): 0.063 OD
glutathione S-transferase [GST, reference compound] |  |  |  |  |  | 0.48 | 
gst-RRLRTRSRPN [GST-115] |  |  |  |  |  | 0.36 | 
gst-SRPYSVDSDSDTNAKHSSHNR [GST-105] |  |  |  |  |  | −0.08 | 
gst-SSHNRRLRTR [GST-114] |  |  |  |  |  | 0.17 | 
gst-STPPSREAYSRPYSVDSDSD [GST-104] |  |  |  |  |  | 0.01 | 
gst-TNAKHSSHN [GST-113] |  |  |  |  |  | 0.26 | 
